Experiments:
[1] = target: HBV C150Bo protein (mutant C150 HBV capsid protein labeled with BoDIPY-FL) (Hepatitis B virus genotype D subtype adw, UniProt P03147, C107A/C48A/C61A/R150C); test: HBV assembly assay (fluorescence quenching in vitro capsid assembly); type: biochemical; conditions: for Activity (HBV assembly assay): at about 10 μM, 50 mM Hepes pH 7.5, 150 mM NaCl, 1 hour at room temperature; for IC50: HBV assembly assay, read-out: Activity (HBV assembly potency, IC50)
[2] = test system: HBV replication in HepG2-2.2.15 cells; test: Dot-blot assay: inhibition of HBV replication in HBV-producing hepatoma cell line; type: cell-based; conditions: Hepatitis B virus, 144 h, six days, reduction in HBV DNA levels
Procedure: Compounds active in the HBV assembly assay are tested for their activity and toxicity in cellular assay. In the first anti-viral assay, the ability of compounds to inhibit HBV replication in an HBV-producing hepatoma cell line using the dot-blot method is evaluated.
Briefly, confluent monolayers of HepG2-2.2.15 cells are incubated with complete medium containing various concentrations of a test compound. Three days later, the culture medium is replaced with fresh medium containing the appropriately diluted test compound. Six days following the initial administration of the test compound, the cell culture supernatant is collected, and cell lysis is performed. The samples are applied onto Nylos membranes and DNA is immobilized to the membrane by UV cross-linking. After pre-hybridization, the HBV probe is added and the hybridization is performed overnight. The membranes are exposed to the Kodak films; antiviral activity is calculated from the reduction in HBV DNA levels (EC50). The EC50 for antiviral activity is calculated from the dose response curves of active compounds. Assay performance over time is monitored by the use of the standard positive control compounds ETV, BAY 41-4109, and HAP-1.
In the first anti-viral assay, the ability of compounds to inhibit HBV replication in an HBV-producing hepatoma cell line using the dot-blot method was evaluated.
Confluent monolayers of HepG2-2.2.15 cells were incubated with complete medium containing various concentrations of a test compound. Three days later, the culture medium was replaced with fresh medium containing the appropriately diluted test compound. Six days following the initial administration of the test compound, the cell culture supernatant was collected, and cell lysis was performed. The samples were applied onto Nylos membranes and DNA was immobilized to the membrane by UV cross-linking. After pre-hybridization, the HBV probe was added and the hybridization was performed overnight. The membranes were exposed to the Kodak films; antiviral activity was calculated from the reduction in HBV DNA levels (EC50). The EC50 for antiviral activity was calculated from the dose response curves of active compounds. Assay performance over time was monitored by the use of the standard positive control compounds ETV, BAY 41-4109, and HAP-1.

Sequence of HBV C150Bo protein (mutant C150 HBV capsid protein labeled with BoDIPY-FL) (P03147 1-150 C48A/C61A/C107A/R150C): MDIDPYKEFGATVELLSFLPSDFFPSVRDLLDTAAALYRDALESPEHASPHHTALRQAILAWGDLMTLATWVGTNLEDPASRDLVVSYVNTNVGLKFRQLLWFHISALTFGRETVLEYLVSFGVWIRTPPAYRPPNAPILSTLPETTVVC

Row | SMILES | Activity (HBV assembly assay) [1] | inhibition at 10 µM [2] | IC50 [1]
1 | O=C(Nc1ccc(F)c(F)c1)N1CCCN(c2c(Cl)cncc2Cl)CC1 [Compound 004] | + (>50% activity at about 10 μM) | – | –
2 | O=C(Nc1ccc(F)c(Cl)c1)N1CCCN(c2c(Cl)cncc2Cl)CC1 [Compound 005] | + (>50% activity at about 10 μM) | – | –
3 | O=C(Nc1cccc(Cl)c1)N1CCCN(c2c(Cl)cncc2Cl)CC1 [Compound 010] | + (>50% activity at about 10 μM) | > 50% | –
4 | O=C(Nc1cccc(F)c1)N1CCCN(c2c(Cl)cncc2Cl)CC1 [Compound 011] | + (>50% activity at about 10 μM) | > 50% | –
5 | O=C(Nc1cc(F)c(F)c(F)c1)N1CCCN(c2c(Cl)cncc2Cl)CC1 [Compound 025] | – | > 50% | –
6 | O=C(Nc1ccc(F)c(Cl)c1)N1CCCN(c2c(Cl)cncc2Cl)CC1 [Compound 040] | – | > 50% | –
7 | O=C(Nc1ccc(F)c(Cl)c1)N1CCCN(c2ccnc(Cl)c2Cl)CC1 [Compound 041] | – | > 50% | –
8 | Cc1cncc(Cl)c1N1CCCN(C(=O)Nc2ccc(F)c(Cl)c2)CC1 [Compound 044] | + (>50% activity at about 10 μM) | > 50% | –
9 | O=C(Nc1ccc(F)c(Cl)c1)N1CCCN(c2c(F)cncc2Cl)CC1 [Compound 045] | + (>50% activity at about 10 μM) | > 50% | –
10 | Cc1cncc(C)c1N1CCCN(C(=O)Nc2ccc(F)c(Cl)c2)CC1 [Compound 047] | + (>50% activity at about 10 μM) | > 50% | –
11 | O=C(Nc1ccc(Cl)c(F)c1)N1CCCN(c2c(Cl)cncc2Cl)CC1 [Compound 049] | – | > 50% | –
12 | O=C(Nc1ccc(F)c(Cl)c1)C1CCCN(c2c(Cl)cncc2Cl)CC1 (stereo not shown) [Compound 055] | + (>50% activity at about 10 μM) | – | –
13 | O=C(Nc1ccc(F)c(F)c1)C1CCCN(c2c(Cl)cncc2Cl)CC1 (stereo not shown) [Compound 056] | + (>50% activity at about 10 μM) | > 50% | –
14 | O=C(Nc1ccc(F)c(Cl)c1)N1CC2CC(C1)N(c1c(Cl)cncc1Cl)C2 (stereo not shown) [Compound 065] | – | > 50% | –
15 | O=C(Nc1ccc(F)c(Cl)c1)N1CC2CC1CCN2c1c(Cl)cncc1Cl (stereo not shown) [Compound 077] | – | > 50% | –
16 | CC1CN(c2c(Cl)cncc2Cl)CCCN1C(=O)Nc1ccc(F)c(Cl)c1 (stereo not shown) [Compound 087] | – | > 50% | –
17 | O=C(Nc1ccc(F)c(Cl)c1)N1CCCN(c2c(Cl)cncc2Cl)CC1Cc1ccccc1 (stereo not shown) [Compound 091] | + (>50% activity at about 10 μM) | – | < 20 µM

Row | SMILES | Activity (HBV assembly assay) [1] | inhibition at 10 µM [2] | IC50 [1]
18 | CC1CCN(c2c(Cl)cncc2Cl)CCN1C(=O)Nc1ccc(F)c(Cl)c1 (stereo not shown) [Compound 092] | + (>50% activity at about 10 μM) | > 50% | < 20 µM
19 | CC1CN(C(=O)Nc2ccc(F)c(Cl)c2)CCN(c2c(Cl)cncc2Cl)C1 (stereo not shown) [Compound 097] | + (>50% activity at about 10 μM) | > 50% | –
20 | COC(=O)C1CN(C(=O)Nc2ccc(F)c(Cl)c2)CCN(c2c(Cl)cncc2Cl)C1 (stereo not shown) [Compound 098] | + (>50% activity at about 10 μM) | – | –
21 | O=C(Nc1ccc(F)c(Cl)c1)N1CCN(c2c(Cl)cncc2Cl)CC(CO)C1 (stereo not shown) [Compound 099] | + (>50% activity at about 10 μM) | > 50% | –
22 | O=C(Nc1ccc(F)c(Cl)c1)N1CCN(c2c(Cl)cncc2Cl)CC(O)C1 (stereo not shown) [Compound 100] | + (>50% activity at about 10 μM) | > 50% | –
23 | CCc1cncc(Cl)c1N1CCCN(C(=O)Nc2ccc(F)c(Cl)c2)CC1 [Compound 107] | + (>50% activity at about 10 μM) | > 50% | < 20 µM
24 | CCc1cncc(Cl)c1N1CCCN(C(=O)Nc2cccc(Cl)c2)CC1 [Compound 108] | + (>50% activity at about 10 μM) | – | < 20 µM
25 | O=C(Nc1ccc(F)c(Cl)c1)N1CCCN(c2c(Cl)cncc2C2CC2)CC1 [Compound 109] | + (>50% activity at about 10 μM) | > 50% | < 20 µM
26 | O=C(Nc1cccc(Cl)c1)N1CCCN(c2c(Cl)cncc2C2CC2)CC1 [Compound 110] | + (>50% activity at about 10 μM) | – | < 20 µM
27 | O=C(Nc1ccc(F)c(Cl)c1)N1CCCN(c2c(Cl)cncc2Cc2ccccc2)CC1 [Compound 115] | – | > 50% | –
28 | O=C(Nc1ccc(F)c(F)c1)N1C2CCC1CN(c1c(Cl)cncc1Cl)CC2 (stereo not shown) [Compound 120] | + (>50% activity at about 10 μM) | > 50% | –
29 | O=C(Nc1ccc(F)c(Cl)c1)N1C2CCC1CN(c1c(Cl)cncc1Cl)CC2 (stereo not shown) [Compound 121] | – | > 50% | –
30 | O=C(Nc1ccc(F)c(Cl)c1)N1CCCN(c2c(Cl)cncc2CO)CC1 [Compound 126] | – | > 50% | –
31 | COCCc1cncc(Cl)c1N1CCCN(C(=O)Nc2ccc(F)c(Cl)c2)CC1 [Compound 129] | – | > 50% | –
32 | COC1CN(C(=O)Nc2ccc(F)c(Cl)c2)CCN(c2c(Cl)cncc2Cl)C1 (stereo not shown) [Compound 130] | – | > 50% | –
33 | CCOC1CN(C(=O)Nc2ccc(F)c(Cl)c2)CCN(c2c(Cl)cncc2Cl)C1 (stereo not shown) [Compound 131] | – | > 50% | –

— patent US9758489B2, “Azepane derivatives and methods of treating hepatitis B infections” (Novira Therapeutics, Inc., priority 2013, dated 2017)
